Measured values taken from ChEMBL document CHEMBL2010729, “Facile synthesis of triterpenoid saponins bearing β-Glu/Gal-(1→3)-β-GluA methyl ester and their cytotoxic activities” (Bioorg Med Chem Lett, 2012).
Calls of active or inactive are those of the source. The rule behind the calls is not given here.

How the values were obtained:
[1] = test system: MCF7; test: Cytotoxicity against human MCF7 cells after 48 hrs by MTT assay; type: functional, cell-based; settings: MCF7, 48 h
[2] = test system: K562; test: Cytotoxicity against human K562 cells after 48 hrs by MTT assay; type: functional, cell-based; settings: K562, 48 h
[3] = test system: HepG2; test: Cytotoxicity against human HepG2 cells after 48 hrs by MTT assay; type: functional, cell-based; settings: HepG2, 48 h
[4] = test system: MCF7; test: Induction of apoptosis in human MCF7 cells assessed as late apoptotic cells at 1 uM after 24 hrs using propidium iodide/annexin V staining by flow cytometry (reference value: 0.11 %); type: functional
[5] = test system: MCF7; test: Induction of apoptosis in human MCF7 cells assessed as membrane blebbing at 1 to 3 uM after 24 hrs by DAPI staining based confocal laser scanning microscopy; type: functional, cell-based
[6] = test system: MCF7; test: Induction of apoptosis in human MCF7 cells assessed as apoptotic body formation at 1 to 3 uM after 24 hrs by DAPI staining based confocal laser scanning microscopy; type: functional, cell-based
[7] = test system: MCF7; test: Induction of apoptosis in human MCF7 cells assessed as increase in ROS production after 24 hrs by fluorescence analysis; type: functional, cell-based
[8] = test system: MCF7; test: Induction of apoptosis in human MCF7 cells assessed as apoptotic cells at 3 uM after 24 hrs using propidium iodide/annexin V staining by flow cytometry (reference value: 3.07 %); type: functional
[9] = test system: MCF7; test: Induction of apoptosis in human MCF7 cells assessed as pre-necrotic cells at 3 uM after 24 hrs using propidium iodide/annexin V staining by flow cytometry (reference value: 0.05 %); type: functional
[10] = test system: MCF7; test: Induction of apoptosis in human MCF7 cells assessed as late apoptotic cells at 2 uM after 24 hrs using propidium iodide/annexin V staining by flow cytometry (reference value: 0.11 %); type: functional
[11] = test system: MCF7; test: Induction of apoptosis in human MCF7 cells assessed as chromatin condensation at 1 to 3 uM after 24 hrs by DAPI staining based confocal laser scanning microscopy; type: functional, cell-based
[12] = test system: MCF7; test: Induction of apoptosis in human MCF7 cells assessed as apoptotic cells at 1 uM after 24 hrs using propidium iodide/annexin V staining by flow cytometry (reference value: 3.07 %); type: functional
[13] = test system: MCF7; test: Induction of apoptosis in human MCF7 cells assessed as cell shrinkage at 1 to 3 uM after 24 hrs by DAPI staining based confocal laser scanning microscopy; type: functional
[14] = test system: MCF7; test: Induction of apoptosis in human MCF7 cells assessed as loss of mitochondrial membrane potential by JC-1 staining based flow cytometry; type: functional, cell-based
[15] = test system: MCF7; test: Induction of apoptosis in human MCF7 cells assessed as apoptotic cells at 2 uM after 24 hrs using propidium iodide/annexin V staining by flow cytometry (reference value: 3.07 %); type: functional
[16] = test system: MCF7; test: Induction of apoptosis in human MCF7 cells assessed as pre-necrotic cells at 2 uM after 24 hrs using propidium iodide/annexin V staining by flow cytometry (reference value: 0.05 %); type: functional
[17] = test system: MCF7; test: Induction of apoptosis in human MCF7 cells assessed as late apoptotic cells at 3 uM after 24 hrs using propidium iodide/annexin V staining by flow cytometry (reference value: 0.11 %); type: functional
[18] = test system: MCF7; test: Induction of apoptosis in human MCF7 cells assessed as pre-necrotic cells at 1 uM after 24 hrs using propidium iodide/annexin V staining by flow cytometry (reference value: 0.05 %); type: functional

SMILES | IC50 [1] | IC50 [2] | IC50 [3] | other results
COC(=O)[C@H]1O[C@@H](O[C@H]2CC[C@]3(C)[C@H]4C(=O)C=C5[C@@H]6C[C@@](C)(C(=O)O)CC[C@]6(C)CC[C@@]5(C)[C@]4(C)CC[C@H]3C2(C)C)[C@H](O)[C@@H](O[C@@H]2O[C@H](CO)[C@H](O)[C@H](O)[C@H]2O)[C@@H]1O | > 60 µM | > 60 µM | > 60 µM | –
COC(=O)[C@H]1O[C@@H](O[C@H]2CC[C@]3(C)[C@H]4CC=C5[C@@H]6CC(C)(C)CC[C@]6(C(=O)O)CC[C@@]5(C)[C@]4(C)CC[C@H]3C2(C)C)[C@H](O)[C@@H](O[C@@H]2O[C@H](CO)[C@H](O)[C@H](O)[C@H]2O)[C@@H]1O | 1.87 µM | 2.36 µM | 2.24 µM | Activity [4]: 8.43%; Activity [5]: Active; Activity [6]: Active; Activity [7]: Dose-dependent effect; Activity [8]: 3.26%; Activity [9]: 18.81%; Activity [10]: 18.44%; Activity [11]: Active; Activity [12]: 4.33%; Activity [13]: Active; Activity [14]: Dose-dependent effect; Activity [15]: 2.42%; Activity [16]: 2.84%; Activity [17]: 29.61%; Activity [18]: 2.2%
COC(=O)[C@H]1O[C@@H](O[C@H]2CC[C@]3(C)[C@H]4CC=C5[C@@H]6[C@@H](C)[C@H](C)CC[C@]6(C(=O)O)CC[C@@]5(C)[C@]4(C)CC[C@H]3C2(C)C)[C@H](O)[C@@H](O[C@@H]2O[C@H](CO)[C@@H](O)[C@H](O)[C@H]2O)[C@@H]1O | 23.3 µM | > 60 µM | 44.7 µM | –
COC(=O)[C@H]1O[C@@H](O[C@H]2CC[C@]3(C)[C@H]4CC=C5[C@@H]6[C@@H](C)[C@H](C)CC[C@]6(C(=O)O)CC[C@@]5(C)[C@]4(C)CC[C@H]3C2(C)C)[C@H](O)[C@@H](O[C@@H]2O[C@H](CO)[C@H](O)[C@H](O)[C@H]2O)[C@@H]1O | 22.1 µM | > 60 µM | 47.1 µM | –
COC(=O)[C@H]1O[C@@H](O[C@H]2CC[C@]3(C)[C@H]4C(=O)C=C5[C@@H]6C[C@@](C)(C(=O)O)CC[C@]6(C)CC[C@@]5(C)[C@]4(C)CC[C@H]3C2(C)C)[C@H](O)[C@@H](O[C@@H]2O[C@H](CO)[C@@H](O)[C@H](O)[C@H]2O)[C@@H]1O | > 60 µM | > 60 µM | > 60 µM | –
COC(=O)[C@H]1O[C@@H](O[C@H]2CC[C@]3(C)[C@H]4CC=C5[C@@H]6CC(C)(C)CC[C@]6(C(=O)O)CC[C@@]5(C)[C@]4(C)CC[C@H]3C2(C)C)[C@H](O)[C@@H](O[C@@H]2O[C@H](CO)[C@@H](O)[C@H](O)[C@H]2O)[C@@H]1O [SPINASAPONIN A METHYL ESTER] | 4.52 µM | 15.7 µM | 8.36 µM | –
